Data as given in article PMC9358002, “Synthesis and Discovery of Ligustrazine–Heterocycle Derivatives as Antitumor Agents” (Frontiers in Chemistry, 2022).
Like-named read-outs stand apart in the source and are kept apart here.

Columns and labels:
Type in all cases: cell-based
[1] = system: human umbilical vein endothelial HUVEC; test: MTT antiproliferative assay, HUVEC; conditions: 48 h, 0–50 μM, read-out: Antiproliferative activity IC50 ± SEM, HUVEC
Description: (§1) The in vitro antiproliferative activity of 33 TMPH compounds was evaluated by MTT assay ([Medica et al., 2022]). Five types of TNBC-related cell lines (human breast cancer MCF-7 and MDA-MB-231, mouse breast cancer 4T1, mouse fibroblast L929, and human umbilical vein endothelial HUVEC cell lines) were used. The cell lines were obtained from the Shanghai Institute of Biochemistry and Cell Biology of the Chinese Academy of Sciences (Shanghai, China). The cell lines were cultured in DMEM supplemented with 1% penicillin–streptomycin solution (100×) and 10% FBS at 37°C under a humid atmosphere containing 5% CO2. After cell passage, cryopreservation, and resuscitation, the growth-inhibitory effects against the five cell lines were determined by MTT assay. The 33 TMPH compounds and the reference control drug cisplatin were dissolved in 0.1% DMSO solution. The cell lines were maintained in 96-well plates and subjected to each test compound (0–50 μM) at 37°C for 48 h. After treatment with 1 mg/ml MTT solution for 4 h, the formazan crystals were dissolved in each well. A microplate reader (Varioskan Flash 3001, Thermo Scientific) was used to determine the cell viability at 490 nm, and each experiment was repeated four times. The collected data were expressed as the mean ± SEM. The inhibitory concentration of the 34 compounds at 50% (IC50) was calculated via concentration–inhibition relationship regression by SPSS software.

[2] = system: human breast cancer MCF-7; test: MTT antiproliferative assay, MCF-7; conditions: 0–50 μM, read-out: Antiproliferative activity IC50 ± SEM, MCF-7
Description: as §1

mouse fibroblast L929 = test: MTT antiproliferative assay, L929; conditions: 0–50 μM, read-out: Antiproliferative activity IC50 ± SEM, L929
Description: as §1

[3] = system: human breast cancer MDA-MB-231; test: MTT antiproliferative assay, MDA-MB-231; conditions: for IC50: MTT, 48 h, 0–50 μM, read-out: Antiproliferative activity IC50 ± SEM, MDA-MB-231; for SI, selectivity index: SI = IC50 (L929)/IC50 (MDA-MB-231)
Description: as §1

mouse breast cancer 4T1 = test: MTT antiproliferative assay, 4T1; conditions: 48 h, 0–50 μM, read-out: Antiproliferative activity IC50 ± SEM, 4T1
Description: as §1

[4] = system: MCF-7, MDA-MB-231, 4T1, L929 and HUVEC cell lines; test: MTT antiproliferative assay, statements over all five tested cell lines; conditions: range over all five tested cell lines, read-out: IC50 values ranging over the tested cell lines
Description: as §1

| SMILES | IC50 ([1]; Homo sapiens, HUVEC) | IC50 ([2]; Homo sapiens, MCF7, 48 h) | IC50 (mouse fibroblast L929; Mus musculus, L929, 48 h) | IC50 ([3]; Homo sapiens, MDA-MB-231) | SI, selectivity index [3] | IC50 (mouse breast cancer 4T1; Mus musculus) | IC50 [4] | IC50 [1] | IC50 ([2]; 48 h) | IC50 (mouse fibroblast L929; 48 h) | IC50 [3] | IC50 (mouse breast cancer 4T1) |
| --- | --- | --- | --- | --- | --- | --- | --- | --- | --- | --- | --- | --- |
| Cc1nc(C)c(C(=O)NCCCCCCCCNC(=O)C=Cc2ccccc2)nc1C [8–1] | > 20 µM | 10.99 ± 0.06 µM | 16.58 ± 0.12 µM | 2.52 ± 0.08 µM | 6.58 | > 20 µM | – | – | – | – | – | – |
| Cc1nc(C)c(C(=O)NCCCCCCCCNC(=O)c2cc3ccccc3o2)nc1C [8–2] | 4.27 ± 0.07 µM | 6.62 ± 0.15 µM | > 20 µM | 6.1 ± 0.16 µM | >3.28 | 19.86 ± 0.16 µM | – | – | – | – | – | – |
| Cc1nc(C)c(C(=O)NCCCCCCCCNC(=O)c2cc3ccccc3s2)nc1C [8–3] | 9.78 ± 0.05 µM | 4.15 ± 0.02 µM | 4.12 ± 0.32 µM | 3.39 ± 0.12 µM | 1.22 | 19.5 ± 0.45 µM | 1.61 to 19.5 µM | – | – | – | – | – |
| Cc1nc(C)c(C(=O)NCCCCCCCCNC(=O)c2cc3ccccc3[nH]2)nc1C [8–4] | > 20 µM | 6.21 ± 0.14 µM | 10.7 ± 0.43 µM | 5.77 ± 0.09 µM | 1.85 | > 20 µM | – | – | – | – | – | – |
| Cc1nc(C)c(C(=O)NCCCCCCCCNC(=O)c2cnc3ccccc3c2)nc1C [8–5] | > 20 µM | 4.96 ± 0.25 µM | 3.49 ± 0.28 µM | 3.44 ± 0.16 µM | 1.01 | 2.07 ± 0.04 µM | – | – | – | – | – | – |
| Cc1nc(C)c(C(=O)NCCCCCCCCNC(=O)c2ccc3ncccc3c2)nc1C [8–6] | > 20 µM | > 20 µM | > 20 µM | 1.02 ± 0.15 µM | >19.61 | 1.94 ± 0.03 µM | – | – | – | – | – | – |
| Cc1nc(C)c(C(=O)NCCCCCCCCNC(=O)c2ccc3cc[nH]c3c2)nc1C [8–9] | > 20 µM | > 20 µM | > 20 µM | 8.45 ± 0.14 µM | >2.37 | 3.74 ± 0.19 µM | – | – | – | – | – | – |
| Cc1nc(C)c(C(=O)NCCCCCCCCNC(=O)C=Cc2ccc(Cl)cc2)nc1C [8–10] | 4.54 ± 0.01 µM | 2.84 ± 0.21 µM | 5.48 ± 0.06 µM | 6.67 ± 0.16 µM | 0.82 | 2.48 ± 0.24 µM | 1.61 to 19.5 µM | – | – | – | – | – |
| COc1ccc(C=CC(=O)NCCCCCCCCNC(=O)c2nc(C)c(C)nc2C)cc1OC [8–11] | 10.35 ± 0.03 µM | > 20 µM | > 20 µM | 5.05 ± 0.02 µM | >3.96 | 12 ± 0.46 µM | – | – | – | – | – | – |
| COc1cc(C=CC(=O)NCCCCCCCCNC(=O)c2nc(C)c(C)nc2C)cc(OC)c1OC [8–12] | > 20 µM | 5.38 ± 0.13 µM | > 20 µM | 11.2 ± 0.12 µM | >1.78 | 10.2 ± 0.32 µM | – | – | – | – | – | – |
| Cc1nc(C)c(C(=O)NCCCCCCCCNC(=O)c2ccc3ccccc3c2)nc1C [8–13] | 14.4 ± 0.03 µM | > 20 µM | 15.7 ± 0.36 µM | 2.44 ± 0.09 µM | 6.42 | 13.7 ± 0.24 µM | – | – | – | – | – | – |
| Cc1nc(C)c(C(=O)NCCCCCCCCCCNC(=O)C=Cc2ccccc2)nc1C [10–1] | > 20 µM | 2.61 ± 0.19 µM | 4.36 ± 0.37 µM | 1.14 ± 0.08 µM | 3.82 | 2.86 ± 0.18 µM | – | – | – | – | – | – |
| Cc1nc(C)c(C(=O)NCCCCCCCCCCNC(=O)c2cc3ccccc3o2)nc1C [10–2] | 16.6 ± 0.68 µM | 4.19 ± 0.15 µM | 11.7 ± 0.81 µM | 8.41 ± 0.18 µM | 1.39 | > 20 µM | – | – | – | – | – | – |
| Cc1nc(C)c(C(=O)NCCCCCCCCCCNC(=O)c2cc3ccccc3s2)nc1C [10–3] | > 20 µM | 18.5 ± 1.34 µM | 7.26 ± 0.16 µM | 4.16 ± 0.25 µM | 1.75 | 17.6 ± 1.16 µM | – | – | – | – | – | – |
| Cc1nc(C)c(C(=O)NCCCCCCCCCCNC(=O)c2cc3ccccc3[nH]2)nc1C [10–4] | > 20 µM | > 20 µM | > 20 µM | 13 ± 0.27 µM | >1.54 | > 20 µM | – | – | – | – | – | – |
| Cc1nc(C)c(C(=O)NCCCCCCCCCCNC(=O)c2cnc3ccccc3c2)nc1C [10–5] | > 20 µM | 8.72 ± 0.49 µM | 5.18 ± 0.27 µM | 5.76 ± 0.13 µM | 0.90 | > 20 µM | – | – | – | – | – | – |
| Cc1nc(C)c(C(=O)NCCCCCCCCCCNC(=O)c2ccc3ncccc3c2)nc1C [10–6] | 10.2 ± 0.86 µM | 6.49 ± 0.36 µM | 8.91 ± 0.12 µM | 7.76 ± 0.14 µM | 1.15 | 12 ± 0.54 µM | 1.61 to 19.5 µM | – | – | – | – | – |
| Cc1nc(C)c(C(=O)NCCCCCCCCCCNC(=O)C=Cc2ccc(Cl)cc2)nc1C [10–10] | 11.2 ± 0.38 µM | 2.93 ± 0.05 µM | 10.1 ± 0.52 µM | 2.83 ± 0.09 µM | 3.58 | > 20 µM | – | – | – | – | – | – |
| COc1ccc(C=CC(=O)NCCCCCCCCCCNC(=O)c2nc(C)c(C)nc2C)cc1OC [10–11] | > 20 µM | 3.23 ± 0.03 µM | > 20 µM | 12.9 ± 1.41 µM | >1.55 | > 20 µM | – | – | – | – | – | – |
| COc1cc(C=CC(=O)NCCCCCCCCCCNC(=O)c2nc(C)c(C)nc2C)cc(OC)c1OC [10–12] | > 20 µM | 2.86 ± 0.08 µM | > 20 µM | 3.41 ± 0.12 µM | >5.87 | > 20 µM | – | – | – | – | – | – |
| Cc1nc(C)c(C(=O)NCCCCCCCCCCCCNC(=O)c2cc3ccccc3[nH]2)nc1C [12–4] | > 20 µM | 3.23 ± 0.18 µM | > 20 µM | 3.52 ± 0.12 µM | >5.68 | 6.62 ± 0.14 µM | – | – | – | – | – | – |
| COc1ccc(C=CC(=O)NCCCCCCCCCCCCNC(=O)c2nc(C)c(C)nc2C)cc1OC [12–11] | > 20 µM | 1.76 ± 0.02 µM | > 20 µM | 2.42 ± 0.18 µM | >8.26 | 2.32 ± 0.14 µM | – | – | – | – | – | – |
| N.N.[Cl][Pt][Cl] [DDP, cisplatin, reference compound] | – | – | – | – | 2.64 | – | – | 7.46 ± 0.45 µM | 6.25 ± 0.34 µM | 8.38 ± 0.23 µM | 3.18 ± 0.06 µM | 5.71 ± 0.16 µM |
| Cc1nc(C)c(C)nc1C [TMP, Ligustrazine] | > 20 µM | > 20 µM | > 20 µM | > 20 µM | – | > 20 µM | – | – | – | – | – | – |
